Measured values taken from the kinase profiling compilation of Christmann-Franck et al. (2016).

What was measured:
Assay in all cases: radiometric filter-binding kinase assay
ABL1 (human) = ABL1 (human) (UniProt P00519)
AURKB (human) = AURKB (human) (UniProt Q96GD4)
CDK9 CCNT1 (human) = CDK9 CCNT1 (human) (UniProt P50750+O60563)
CSNK1G2 (human) = CSNK1G2 (human) (UniProt P78368)
DDR2 (human) = DDR2 (human) (UniProt Q16832)
EIF2AK3 (human) = EIF2AK3 (human) (UniProt Q9NZJ5)
IRAK1 (human) = IRAK1 (human) (UniProt P51617)
[1] = tested on: OXSR1 (human), O95747 [T185E]
PHKG1 (human) = PHKG1 (human) (UniProt Q16816)
PRKCG (human) = PRKCG (human) (UniProt P05129)
PTK6 (human) = PTK6 (human) (UniProt Q13882)
SIK2 (human) = SIK2 (human) (UniProt Q9H0K1)
SIK3 (human) = SIK3 (human) (UniProt Q9Y2K2)
STK16 (human) = STK16 (human) (UniProt O75716)
STK24 (human) = STK24 (human) (UniProt Q9Y6E0)
STK33 (human) = STK33 (human) (UniProt Q9BYT3)
TEK (human) = TEK (human) (UniProt Q02763)
TESK1 (human) = TESK1 (human) (UniProt Q15569)
TLK1 (human) = TLK1 (human) (UniProt Q9UKI8)
TSSK1B (human) = TSSK1B (human) (UniProt Q9BXA7)
TTBK1 (human) = TTBK1 (human) (UniProt Q5TCY1)
ULK1 (human) = ULK1 (human) (UniProt O75385)
ULK2 (human) = ULK2 (human) (UniProt Q8IYT8)
ZAP70 (human) = ZAP70 (human) (UniProt P43403)

Chain of TSSK1B (human) (Q9BXA7 whole entry, looked up): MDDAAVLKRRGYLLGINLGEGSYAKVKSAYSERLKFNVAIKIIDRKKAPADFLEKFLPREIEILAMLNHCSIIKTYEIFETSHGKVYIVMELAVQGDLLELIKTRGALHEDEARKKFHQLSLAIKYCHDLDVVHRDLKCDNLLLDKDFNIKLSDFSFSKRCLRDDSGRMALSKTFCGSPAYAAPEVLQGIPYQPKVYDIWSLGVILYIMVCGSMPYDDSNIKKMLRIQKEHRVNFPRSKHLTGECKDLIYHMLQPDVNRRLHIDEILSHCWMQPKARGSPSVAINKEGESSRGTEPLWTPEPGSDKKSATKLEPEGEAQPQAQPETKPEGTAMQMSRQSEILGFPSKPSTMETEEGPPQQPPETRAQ
Chain of OXSR1 (human), O95747 [T185E] (O95747 whole entry T185E, looked up): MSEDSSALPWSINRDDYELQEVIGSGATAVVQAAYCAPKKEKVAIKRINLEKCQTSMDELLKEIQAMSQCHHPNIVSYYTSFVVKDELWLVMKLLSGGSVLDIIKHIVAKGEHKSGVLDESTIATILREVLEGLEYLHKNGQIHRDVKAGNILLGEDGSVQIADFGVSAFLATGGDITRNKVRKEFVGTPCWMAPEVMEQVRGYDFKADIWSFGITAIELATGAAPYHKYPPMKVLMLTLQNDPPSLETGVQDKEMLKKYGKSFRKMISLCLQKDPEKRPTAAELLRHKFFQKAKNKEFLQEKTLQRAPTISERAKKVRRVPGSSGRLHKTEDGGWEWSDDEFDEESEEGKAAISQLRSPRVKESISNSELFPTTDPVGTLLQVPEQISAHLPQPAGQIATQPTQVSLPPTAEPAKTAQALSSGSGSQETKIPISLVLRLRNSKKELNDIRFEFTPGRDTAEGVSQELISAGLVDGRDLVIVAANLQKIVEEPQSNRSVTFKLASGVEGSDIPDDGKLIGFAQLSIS
Chain of STK16 (human) (O75716 whole entry, looked up): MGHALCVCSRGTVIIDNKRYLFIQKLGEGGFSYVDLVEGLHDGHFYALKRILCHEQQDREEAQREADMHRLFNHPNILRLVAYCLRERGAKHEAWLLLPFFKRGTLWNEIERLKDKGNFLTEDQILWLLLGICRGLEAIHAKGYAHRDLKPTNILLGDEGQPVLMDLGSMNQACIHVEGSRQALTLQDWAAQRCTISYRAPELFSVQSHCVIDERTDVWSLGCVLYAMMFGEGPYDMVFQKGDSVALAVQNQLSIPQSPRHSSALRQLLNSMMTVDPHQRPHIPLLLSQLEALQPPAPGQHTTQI
Chain of EIF2AK3 (human) (Q9NZJ5 whole entry, looked up): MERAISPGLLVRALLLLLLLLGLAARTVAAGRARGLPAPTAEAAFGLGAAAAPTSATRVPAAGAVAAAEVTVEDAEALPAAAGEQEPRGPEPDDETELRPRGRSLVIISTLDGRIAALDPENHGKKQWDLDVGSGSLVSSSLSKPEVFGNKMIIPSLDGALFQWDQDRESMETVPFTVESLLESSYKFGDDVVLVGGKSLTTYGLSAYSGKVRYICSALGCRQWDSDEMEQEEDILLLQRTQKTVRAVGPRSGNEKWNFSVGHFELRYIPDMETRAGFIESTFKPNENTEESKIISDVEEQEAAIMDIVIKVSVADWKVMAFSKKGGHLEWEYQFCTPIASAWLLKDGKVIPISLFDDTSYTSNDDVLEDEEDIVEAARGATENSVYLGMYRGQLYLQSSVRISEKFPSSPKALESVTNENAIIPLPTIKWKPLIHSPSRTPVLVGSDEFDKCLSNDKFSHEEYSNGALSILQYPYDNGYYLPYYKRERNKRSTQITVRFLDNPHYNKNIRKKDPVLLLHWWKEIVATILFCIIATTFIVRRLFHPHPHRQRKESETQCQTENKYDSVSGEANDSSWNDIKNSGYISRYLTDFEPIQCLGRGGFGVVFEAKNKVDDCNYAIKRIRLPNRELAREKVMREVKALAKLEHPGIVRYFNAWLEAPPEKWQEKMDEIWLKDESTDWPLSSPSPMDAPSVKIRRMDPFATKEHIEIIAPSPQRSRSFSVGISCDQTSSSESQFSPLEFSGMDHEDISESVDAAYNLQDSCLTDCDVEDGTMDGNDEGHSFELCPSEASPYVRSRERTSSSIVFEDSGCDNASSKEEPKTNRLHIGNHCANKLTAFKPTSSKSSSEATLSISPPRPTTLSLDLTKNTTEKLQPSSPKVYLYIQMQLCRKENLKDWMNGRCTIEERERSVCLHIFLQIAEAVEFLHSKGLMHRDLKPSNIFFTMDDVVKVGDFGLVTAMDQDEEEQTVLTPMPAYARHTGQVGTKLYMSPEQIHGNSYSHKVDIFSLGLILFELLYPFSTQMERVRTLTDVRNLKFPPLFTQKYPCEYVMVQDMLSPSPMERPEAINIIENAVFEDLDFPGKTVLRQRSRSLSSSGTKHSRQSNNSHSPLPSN
Chain of AURKB (human) (Q96GD4 whole entry, looked up): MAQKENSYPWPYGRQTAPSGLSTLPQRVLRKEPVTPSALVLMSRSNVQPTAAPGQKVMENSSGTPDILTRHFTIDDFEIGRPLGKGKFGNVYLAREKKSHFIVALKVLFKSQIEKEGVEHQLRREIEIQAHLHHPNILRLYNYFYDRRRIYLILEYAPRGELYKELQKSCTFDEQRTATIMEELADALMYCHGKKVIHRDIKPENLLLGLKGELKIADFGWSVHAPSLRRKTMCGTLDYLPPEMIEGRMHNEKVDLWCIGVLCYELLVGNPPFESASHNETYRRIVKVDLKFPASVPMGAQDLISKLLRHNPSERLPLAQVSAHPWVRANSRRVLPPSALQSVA
Chain of STK33 (human) (Q9BYT3 whole entry, looked up): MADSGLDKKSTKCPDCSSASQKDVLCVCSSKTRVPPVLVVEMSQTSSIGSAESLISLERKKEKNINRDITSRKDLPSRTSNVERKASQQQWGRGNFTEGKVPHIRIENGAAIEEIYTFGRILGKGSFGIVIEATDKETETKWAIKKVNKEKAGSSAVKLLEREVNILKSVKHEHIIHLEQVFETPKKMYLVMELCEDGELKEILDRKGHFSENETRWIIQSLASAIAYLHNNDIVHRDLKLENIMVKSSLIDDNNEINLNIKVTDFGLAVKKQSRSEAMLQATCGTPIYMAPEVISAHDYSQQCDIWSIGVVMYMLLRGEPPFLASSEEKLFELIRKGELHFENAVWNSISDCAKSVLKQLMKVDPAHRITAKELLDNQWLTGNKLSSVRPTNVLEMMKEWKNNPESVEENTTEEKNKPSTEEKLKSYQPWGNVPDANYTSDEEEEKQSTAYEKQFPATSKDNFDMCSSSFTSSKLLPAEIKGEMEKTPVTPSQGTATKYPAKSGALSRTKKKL
Chain of IRAK1 (human) (P51617 whole entry, looked up): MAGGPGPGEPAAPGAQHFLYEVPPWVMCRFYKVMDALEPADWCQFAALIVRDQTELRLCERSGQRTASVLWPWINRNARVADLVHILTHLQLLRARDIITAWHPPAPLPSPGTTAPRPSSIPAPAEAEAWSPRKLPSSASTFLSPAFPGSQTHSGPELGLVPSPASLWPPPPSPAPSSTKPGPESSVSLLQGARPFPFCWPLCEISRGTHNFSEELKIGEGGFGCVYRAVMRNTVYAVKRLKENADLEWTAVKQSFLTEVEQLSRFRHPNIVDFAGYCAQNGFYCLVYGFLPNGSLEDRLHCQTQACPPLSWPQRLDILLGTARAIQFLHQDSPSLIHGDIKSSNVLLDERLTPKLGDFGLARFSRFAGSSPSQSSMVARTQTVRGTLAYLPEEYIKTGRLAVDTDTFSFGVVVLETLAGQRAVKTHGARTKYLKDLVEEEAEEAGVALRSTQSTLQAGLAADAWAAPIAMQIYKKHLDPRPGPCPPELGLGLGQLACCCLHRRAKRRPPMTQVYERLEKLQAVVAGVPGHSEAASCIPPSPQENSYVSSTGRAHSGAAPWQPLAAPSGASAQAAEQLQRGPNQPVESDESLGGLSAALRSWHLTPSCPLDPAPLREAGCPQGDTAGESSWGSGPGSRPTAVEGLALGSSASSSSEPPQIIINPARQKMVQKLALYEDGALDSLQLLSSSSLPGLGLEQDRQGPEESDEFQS
Chain of PHKG1 (human) (Q16816 whole entry, looked up): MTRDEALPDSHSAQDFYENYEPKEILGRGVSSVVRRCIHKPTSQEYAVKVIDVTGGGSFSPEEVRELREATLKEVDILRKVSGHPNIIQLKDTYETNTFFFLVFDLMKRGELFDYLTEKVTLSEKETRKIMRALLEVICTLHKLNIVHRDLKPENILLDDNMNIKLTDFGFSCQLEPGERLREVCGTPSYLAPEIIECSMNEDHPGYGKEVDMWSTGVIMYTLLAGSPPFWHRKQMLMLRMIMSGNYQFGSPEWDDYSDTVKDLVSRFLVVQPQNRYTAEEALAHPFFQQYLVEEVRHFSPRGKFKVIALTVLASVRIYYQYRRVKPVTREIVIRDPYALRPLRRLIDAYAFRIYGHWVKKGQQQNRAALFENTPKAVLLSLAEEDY

Cc1cc(NC(=O)c2cccc(NC(=O)/C=C/CN(C)C)c2)ccc1Nc1nccc(-c2cccnc2)n1
residual activity (ABL1 (human); compound 0.1 µM): 97% | residual activity (ABL1 (human); compound 1.0 µM): 86% | residual activity (AURKB (human); compound 0.1 µM): 87% | residual activity (AURKB (human); compound 1.0 µM): 86% | residual activity (CDK9 CCNT1 (human); compound 0.1 µM): 85% | residual activity (CDK9 CCNT1 (human); compound 1.0 µM): 80% | residual activity (CSNK1G2 (human); compound 0.1 µM): 109% | residual activity (CSNK1G2 (human); compound 1.0 µM): 87% | residual activity (DDR2 (human); compound 0.1 µM): 106% | residual activity (DDR2 (human); compound 1.0 µM): 97% | residual activity (EIF2AK3 (human); compound 0.1 µM): 103% | residual activity (EIF2AK3 (human); compound 1.0 µM): 93% | residual activity (IRAK1 (human); compound 0.1 µM): 93% | residual activity (IRAK1 (human); compound 1.0 µM): 63% | residual activity ([1]; compound 0.1 µM): 96% | residual activity ([1]; compound 1.0 µM): 91% | residual activity (PHKG1 (human); compound 0.1 µM): 85% | residual activity (PHKG1 (human); compound 1.0 µM): 86% | residual activity (PRKCG (human); compound 0.1 µM): 92% | residual activity (PRKCG (human); compound 1.0 µM): 91% | residual activity (PTK6 (human); compound 1.0 µM): 75% | residual activity (SIK2 (human); compound 0.1 µM): 100% | residual activity (SIK2 (human); compound 1.0 µM): 105% | residual activity (SIK3 (human); compound 0.1 µM): 88% | residual activity (SIK3 (human); compound 1.0 µM): 79% | residual activity (STK16 (human); compound 0.1 µM): 110% | residual activity (STK16 (human); compound 1.0 µM): 101% | residual activity (STK24 (human); compound 0.1 µM): 85% | residual activity (STK24 (human); compound 1.0 µM): 82% | residual activity (STK33 (human); compound 0.1 µM): 99% | residual activity (STK33 (human); compound 1.0 µM): 90% | residual activity (TEK (human); compound 0.1 µM): 105% | residual activity (TEK (human); compound 1.0 µM): 98% | residual activity (TESK1 (human); compound 0.1 µM): 89% | residual activity (TESK1 (human); compound 1.0 µM): 93% | residual activity (TLK1 (human); compound 0.1 µM): 99% | residual activity (TLK1 (human); compound 1.0 µM): 100% | residual activity (TSSK1B (human); compound 0.1 µM): 91% | residual activity (TSSK1B (human); compound 1.0 µM): 86% | residual activity (TTBK1 (human); compound 0.1 µM): 92% | residual activity (TTBK1 (human); compound 1.0 µM): 83% | residual activity (ULK1 (human); compound 0.1 µM): 27% | residual activity (ULK1 (human); compound 1.0 µM): 67% | residual activity (ULK2 (human); compound 0.1 µM): 28% | residual activity (ULK2 (human); compound 1.0 µM): 69% | residual activity (ZAP70 (human); compound 0.1 µM): 105%

NC(=O)c1cc(-c2ccnc(NC3CCCCC3)c2)nc(N2CCNCC2)c1
residual activity (ABL1 (human); compound 0.1 µM): 102% | residual activity (ABL1 (human); compound 1.0 µM): 112% | residual activity (ABL1 (human); compound 10.0 µM): 100% | residual activity (AURKB (human); compound 0.1 µM): 132% | residual activity (AURKB (human); compound 1.0 µM): 117% | residual activity (AURKB (human); compound 10.0 µM): 115% | residual activity (EIF2AK3 (human); compound 0.1 µM): 108% | residual activity (EIF2AK3 (human); compound 1.0 µM): 101% | residual activity (EIF2AK3 (human); compound 10.0 µM): 97% | residual activity (IRAK1 (human); compound 0.1 µM): 92% | residual activity (IRAK1 (human); compound 10.0 µM): 87% | residual activity ([1]; compound 0.1 µM): 98% | residual activity ([1]; compound 1.0 µM): 104% | residual activity ([1]; compound 10.0 µM): 73% | residual activity (PHKG1 (human); compound 0.1 µM): 82% | residual activity (PHKG1 (human); compound 1.0 µM): 29% | residual activity (PHKG1 (human); compound 10.0 µM): 5% | residual activity (PRKCG (human); compound 0.1 µM): 106% | residual activity (PRKCG (human); compound 1.0 µM): 103% | residual activity (PRKCG (human); compound 10.0 µM): 115% | residual activity (PTK6 (human); compound 0.1 µM): 114% | residual activity (PTK6 (human); compound 1.0 µM): 124% | residual activity (PTK6 (human); compound 10.0 µM): 103% | residual activity (STK16 (human); compound 0.1 µM): 100% | residual activity (STK16 (human); compound 1.0 µM): 93% | residual activity (STK16 (human); compound 10.0 µM): 84% | residual activity (STK33 (human); compound 0.1 µM): 103% | residual activity (STK33 (human); compound 10.0 µM): 66% | residual activity (TEK (human); compound 0.1 µM): 101% | residual activity (TEK (human); compound 1.0 µM): 111% | residual activity (TEK (human); compound 10.0 µM): 84% | residual activity (TESK1 (human); compound 0.1 µM): 99% | residual activity (TESK1 (human); compound 1.0 µM): 102% | residual activity (TESK1 (human); compound 10.0 µM): 93% | residual activity (TLK1 (human); compound 0.1 µM): 91% | residual activity (TLK1 (human); compound 1.0 µM): 107% | residual activity (TLK1 (human); compound 10.0 µM): 90% | residual activity (TSSK1B (human); compound 0.1 µM): 84% | residual activity (TSSK1B (human); compound 1.0 µM): 56% | residual activity (TSSK1B (human); compound 10.0 µM): 12% | residual activity (TTBK1 (human); compound 0.1 µM): 93% | residual activity (TTBK1 (human); compound 10.0 µM): 93% | residual activity (ZAP70 (human); compound 0.1 µM): 108% | residual activity (ZAP70 (human); compound 1.0 µM): 114% | residual activity (ZAP70 (human); compound 10.0 µM): 109%
